This assay deals with T1, BCL6 (Homo sapiens, UniProt P41182).
T1 construct: endogenous in cells; host or cells: T47D breast cancer epithelial cells
Briefly: Immunofluorescence protocol for high content imaging of BCL6 (degradation) in T47D cells, 3 days compound treatment. It is filed as cell-based. As to conditions: for DC50: read-out: Mean DC50 (nM)* category; for Dmax: read-out: Mean Dmax (%)** category. In outline:
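Read-out: high-content imaging of anti-BCL6 immunofluorescence (Alexa-488 secondary) with CellMask and Hoechst counterstains, 10×, 4 fields/well. Cells had 3 days of compound exposure at 37° C, 5% CO2, 11-point 3-fold series from a final top of 0.1 or 1 μM.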

Where [1] appears, read: T47D cells, 3 days compound treatment.

Read-outs that look alike come from different tables or passages of the source.

In the case of `CNC(=O)COc1cc2cc(Nc3nc(N4CCC(O[C@H]5C[C@H](N6CCC(c7c(F)cc8c(c7F)CN(C7CCC(=O)NC7=O)C8=O)CC6)C5)CC4)ncc3Cl)ccc2n(C(C)C)c1=O` (stereo partly shown) [Compound 116, 2-({6-[(5-chloro-2-{4-[(1r,3r)-3-{4-[2-(2,6-dioxopiperidin-3-yl)-4,6-difluoro-1-oxo-2,3-dihydro-1H-isoindol-5-yl]piperidin-1-yl}cyclobutoxy]piperidin-1-yl}pyrimidin-4-yl)amino]-2-oxo-1-(propan-2-yl)-1,2-dihydroquinolin-3-yl}oxy)-N-methylacetamide], under setting [1], the DC50 was below 10 nM and the Dmax lay in the range of 50 to 70%. Taken in the same sequence, the figures for `CCn1c(=O)c(OCC(=O)NC)cc2cc(Nc3nc(N4CCC(O[C@H]5C[C@H](N6CCC(c7cccc8c7C(=O)N(C7CCC(=O)NC7=O)C8=O)CC6)C5)CC4)ncc3Cl)ccc21` (stereo partly shown) [Compound 140, 2-({6-[(5-chloro-2-{4-[(1r,3r)-3-{4-[2-(2,6-dioxopiperidin-3-yl)-1,3-dioxo-2,3-dihydro-1H-isoindol-4-yl]piperidin-1-yl}cyclobutoxy]piperidin-1-yl}pyrimidin-4-yl)amino]-1-ethyl-2-oxo-1,2-dihydroquinolin-3-yl}oxy)-N-methylacetamide] were 50 to 100 nM and at least 70%. Taken in the same sequence, the figures for `CNC(=O)COc1cc2cc(Nc3nc(N4CCC(O[C@H]5C[C@H](N6CCC(c7cc8c(cc7OC)C(=O)N(C7CCC(=O)NC7=O)C8=O)CC6)C5)CC4)ncc3Cl)ccc2n(C(C)C)c1=O` (stereo partly shown) [Compound 160, 2-({6-[(5-chloro-2-{4-[(1r,3r)-3-{4-[2-(2,6-dioxopiperidin-3-yl)-6-methoxy-1,3-dioxo-2,3-dihydro-1H-isoindol-5-yl]piperidin-1-yl}cyclobutoxy]piperidin-1-yl}pyrimidin-4-yl)amino]-2-oxo-1-(propan-2-yl)-1,2-dihydroquinolin-3-yl}oxy)-N-methylacetamide] were below 10 nM and at least 70%. `CNC(=O)COc1cc2cc(Nc3nc(N4CCC(O[C@H]5C[C@H](N6CCC(c7cnc8c(c7)CN(C7CCC(=O)NC7=O)C8=O)CC6)C5)CC4)ncc3Cl)ccc2n(C(C)C)c1=O` (stereo partly shown) [Compound 216, 2-({6-[(5-chloro-2-{4-[(1r,3r)-3-{4-[6-(2,6-dioxopiperidin-3-yl)-7-oxo-5H,6H,7H-pyrrolo[3,4-b]pyridin-3-yl]piperidin-1-yl}cyclobutoxy]piperidin-1-yl}pyrimidin-4-yl)amino]-2-oxo-1-(propan-2-yl)-1,2-dihydroquinolin-3-yl}oxy)-N-methylacetamide]: the DC50 was below 10 nM. Also, the Dmax (T47D) was 50 to 70%.

In the case of `CNC(=O)COc1cc2cc(Nc3nc(N4CCCCC4)ncc3Cl)ccc2n(CCOc2ccc3c(c2)C(=O)N(C2CCC(=O)N(C)C2=O)C3=O)c1=O` (stereo not shown) [Compound 320, 2-[(6-{[5-chloro-2-(piperidin-1-yl)pyrimidin-4-yl]amino}-1-(2-{[2-(1-methyl-2,6-dioxopiperidin-3-yl)-1,3-dioxo-2,3-dihydro-1H-isoindol-5-yl]oxy}ethyl)-2-oxo-1,2-dihydroquinolin-3-yl)oxy]-N-methylacetamide], the 50% degradation concentration (DC50) was below 10 nM. For `CNC(=O)COc1cc2cc(Nc3nc(N4CCC(O[C@H]5C[C@H](N6CCN(c7ccc8c(c7)C(=O)N(C7CCC(=O)NC7=O)C8=O)[C@@H](C)C6)C5)CC4)ncc3Cl)ccc2n(C(C)C)c1=O` (stereo partly drawn) [Compound 391, 2-({6-[(5-chloro-2-{4-[(1r,3r)-3-[(3S)-4-[2-(2,6-dioxopiperidin-3-yl)-1,3-dioxo-2,3-dihydro-1H-isoindol-5-yl]-3-methylpiperazin-1-yl]cyclobutoxy]piperidin-1-yl}pyrimidin-4-yl)amino]-2-oxo-1-(propan-2-yl)-1,2-dihydroquinolin-3-yl}oxy)-N-methylacetamide], the DC50 was below 10 nM. Under “T47D”, the Dmax was at least 70%.

Turning to `CNC(=O)COc1cc2cc(Nc3nc(N4CCC(O[C@H]5C[C@H](N6CCC(c7cc(C)c8c(c7F)CN(C7CCC(=O)NC7=O)C8=O)CC6)C5)CC4)ncc3Cl)ccc2n(C(C)C)c1=O` (stereo partly shown) [Compound 208, 2-({6-[(5-chloro-2-{4-[(1r,3r)-3-{4-[2-(2,6-dioxopiperidin-3-yl)-4-fluoro-7-methyl-1-oxo-3H-isoindol-5-yl]piperidin-1-yl}cyclobutoxy]piperidin-1-yl}pyrimidin-4-yl)amino]-1-isopropyl-2-oxoquinolin-3-yl}oxy)-N-methylacetamide], under setting [1], the DC50 was below 10 nM and the Dmax is at least 70%.

As for `CC[C@@H]1CN([C@H]2C[C@H](OC3CCN(c4ncc(Cl)c(Nc5ccc6c(c5)cc(OCC(=O)NC)c(=O)n6C(C)C)n4)CC3)C2)CCN1c1ccc2c(c1C)C(=O)N(C1CCC(=O)NC1=O)C2=O` (stereo partly drawn) [Compound 287, 2-({6-[(5-chloro-2-{4-[(1r,3r)-3-[(3R)-4-[2-(2,6-dioxopiperidin-3-yl)-4-methyl-1,3-dioxo-2,3-dihydro-1H-isoindol-5-yl]-3-ethylpiperazin-1-yl]cyclobutoxy]piperidin-1-yl}pyrimidin-4-yl)amino]-2-oxo-1-(propan-2-yl)-1,2-dihydroquinolin-3-yl}oxy)-N-methylacetamide], the half-maximal degradation concentration (DC50) is below 10 nM. For the same molecule, the Dmax (T47D) is at least 70%. The matching figures for `CNC(=O)COc1cc2cc(Nc3cc(N4CCC(F)(CN5CCC6(CC5)CN(c5ccc7c(c5)CN(C5CCC(=O)NC5=O)C7=O)C6(C)C)CC4)ncc3Cl)ccc2n(C(C)C)c1=O` (stereo not shown) [Compound 240, 2-{[6-({5-chloro-2-[4-({2-[2-(2,6-dioxopiperidin-3-yl)-1-oxo-2,3-dihydro-1H-isoindol-5-yl]-1,1-dimethyl-2,7-diazaspiro[3.5]nonan-7-yl}methyl)-4-fluoropiperidin-1-yl]pyridin-4-yl}amino)-2-oxo-1-(propan-2-yl)-1,2-dihydroquinolin-3-yl]oxy}-N-methylacetamide]: below 10 nM and at least 70%. Taken in the same sequence, the figures for `CNC(=O)COc1cc2cc(Nc3nc(N4CCN(CC5CCC6(CC5)CN(c5ccc7c(c5F)CN(C5CCC(=O)NC5=O)C7=O)C6)CC4)ncc3Cl)ccc2n(C(C)C)c1=O` (stereo not shown) [Compound 307, 2-{[6-({5-chloro-2-[4-({2-[2-(2,6-dioxopiperidin-3-yl)-4-fluoro-1-oxo-2,3-dihydro-1H-isoindol-5-yl]-2-azaspiro[3.5]nonan-7-yl}methyl)piperazin-1-yl]pyrimidin-4-yl}amino)-2-oxo-1-(propan-2-yl)-1,2-dihydroquinolin-3-yl]oxy}-N-methylacetamide] were below 10 nM and 50 to 70%. `CNC(=O)COc1cc2cc(Nc3cc(N4CCC(CN5CCC6(CC5)CN(c5ccc7c(c5)C(=O)N(C5CCC(=O)NC5=O)C7=O)C6)CC4)ncc3Cl)ccc2n(C(C)C)c1=O` (stereo not shown) [Compound 215, 2-{[6-({5-chloro-2-[4-({2-[2-(2,6-dioxopiperidin-3-yl)-1,3-dioxoisoindol-5-yl]-2,7-diazaspiro[3.5]nonan-7-yl}methyl)piperidin-1-yl]pyridin-4-yl}amino)-1-isopropyl-2-oxoquinolin-3-yl]oxy}-N-methylacetamide]: the DC50 lay within 10 to 50 nM. Besides, the Dmax (T47D) was 50 to 70%. In the case of `CNC(=O)COc1cc2cc(Nc3nc(N4CCC(O[C@H]5C[C@H](N6CC7(CCN7c7ccc8c(c7)C(=O)N(C7CCC(=O)NC7=O)C8)C6)C5)CC4)ncc3Cl)ccc2n(C(C)C)c1=O` (stereo partly shown) [Compound 330, 2-({6-[(5-chloro-2-{4-[(1r,3r)-3-{1-[2-(2,6-dioxopiperidin-3-yl)-3-oxo-2,3-dihydro-1H-isoindol-5-yl]-1,6-diazaspiro [3.3]heptan-6-yl}cyclobutoxy]piperidin-1-yl}pyrimidin-4-yl)amino]-2-oxo-1-(propan-2-yl)-1,2-dihydroquinolin-3-yl}oxy)-N-methylacetamide], the DC50 is 10 to 50 nM. The Dmax (T47D) was below 50%. `CNC(=O)COc1cc2cc(Nc3nc(N4CCC(CN5CC6(CCN(c7ccc8c(c7)CN(C7CCC(=O)NC7=O)C8=O)CC6(F)F)C5)CC4)ncc3Cl)ccc2n(C(C)C)c1=O` (stereo not shown) [Compound 136, 2-{[6-({5-chloro-2-[4-({7-[2-(2,6-dioxopiperidin-3-yl)-1-oxo-2,3-dihydro-1H-isoindol-5-yl]-5,5-difluoro-2,7-diazaspiro[3.5]nonan-2-yl}methyl)piperidin-1-yl]pyrimidin-4-yl}amino)-2-oxo-1-(propan-2-yl)-1,2-dihydroquinolin-3-yl]oxy}-N-methylacetamide]: under setting [1], the DC50 was below 10 nM and the Dmax lay in the range of 50 to 70%. For `CNC(=O)COc1cc2cc(Nc3nc(N4CCC(O[C@H]5C[C@H](N6CCC7(CCN(c8ccc9c(c8)CN(C8CCC(=O)NC8=O)C9=O)CC7)CC6)C5)CC4)ncc3Cl)ccc2n(C(C)C)c1=O` (stereo partly shown) [Compound 349, 2-({6-[(5-chloro-2-{4-[(1r,3r)-3-{9-[2-(2,6-dioxopiperidin-3-yl)-1-oxo-2,3-dihydro-1H-isoindol-5-yl]-3,9-diazaspiro [5.5]undecan-3-yl}cyclobutoxy]piperidin-1-yl}pyrimidin-4-yl)amino]-2-oxo-1-(propan-2-yl)-1,2-dihydroquinolin-3-yl}oxy)-N-methylacetamide], the DC50 is below 10 nM. Moreover, the Dmax (T47D) is at least 70%. With `CNC(=O)COc1cc2cc(Nc3nc(N4CCC(OC5CN([C@H]6CC[C@@H](c7ccc8c(c7F)CN(C7CCC(=O)NC7=O)C8=O)CC6)C5)CC4)ncc3Cl)ccc2n(C(C)C)c1=O` (stereo partly shown) [Compound 184], under setting [1], the DC50 is below 10 nM and the Dmax was at least 70%. As for `CNC(=O)COc1cc2cc(Nc3nc(N4CCC(CN5CC(N6CCN(c7ccc8c(c7)C(=O)N(C7CCC(=O)NC7=O)C8=O)CC6)C5)CC4)ncc3Cl)ccc2n(C(C)C)c1=O` (stereo not shown) [Compound 241, 2-({6-[(5-chloro-2-{4-[(3-{4-[2-(2,6-dioxopiperidin-3-yl)-1,3-dioxo-2,3-dihydro-1H-isoindol-5-yl]piperazin-1-yl}azetidin-1-yl)methyl]piperidin-1-yl}pyrimidin-4-yl)amino]-2-oxo-1-(propan-2-yl)-1,2-dihydroquinolin-3-yl}oxy)-N-methylacetamide], the DC50 was 10 to 50 nM. Moreover, for the setting “T47D”, the Dmax is at least 70%.

The record behind these values is patent publication US11986532B2 (Arvinas Operations, Inc., priority 2021, dated 2024).
